Target: human recombinant GABAA α5β3γ2 receptor (Homo sapiens (Human), UniProt P18507+P31644)
Assay: Binding assay, [3H]Ro151788 displacement on membranes of HEK cells
Conditions: 0.5 nM [3H]Ro151788, 60 minutes at 4° C., Cheng-Prusoff; read-out: hGABAA α5 Ki
Procedure: The GABAA α5β3γ2 protein used for the receptor binding assay was derived from membranes produced from HEK cells (Millipore CYL3073) expressing the human recombinant GABAA α5β3γ2 receptor. Cells were stored and cultured in-house according to the instructions provided by the vendor (Millipor). Cell pellet was homogenized in 10 times modified Krebs Henseleit buffer (membrane preparation buffer): 20 mM Tris, 120 mM NaCl, 100 mM KCl, 25 mM CaCl2) and 25 mM MgCl2 pH=7.4 at 4° C. using Ultra Turrax (Janke&Kunkel) maximal speed for 15 seconds. The homogenate was centrifuged at 40,000 g for 30 minutes at 4° C. Supernatant was discarded and the resulting pellet was washed in membrane preparation buffer. Pellet was resuspended in membrane preparation buffer and aliquots of 1.4 mL ampulles were stored at −70° C. until use.
Receptor binding assays were performed in 96-well format in deep-well plates. For each 96-well plate one ampulle of membrane homogenate was thawed and diluted in binding buffer (50 mM Tris pH=7.4, 100 mM KCl) and 200 μL was dispensed into each well. Radioligand [^3H]Ro151788 (Perkin Elmer: NET757250UC) was prepared in binding buffer and added to each well in 50 μL volume to give final concentration of 0.5 nM. Test compounds in suitable concentration(s) were added in additional 50 μL. The final assay volume was 300 μL. Incubation was carried out for 60 minutes at 4° C. For non-specific binding 10 μM unlabeled diazepam was used. After incubation samples were filtered over UniFilter® GF/B™ using Filtermate Harvester (Perkin Elmer) and washed with 5×1 mL binding buffer. The plate was dried at 40° C. for an hour and 40 μL Microscint (Perkin Elmer) scintillation cocktail was added to each well. The plate was read in Microbeta (Perkin Elmer).
The specific radioligand binding (SB) was defined as the difference between total binding (Tot) and the non-specific binding (NSB). Results are expressed as a percent inhibition of specific binding obtained in the presence of compound of interest.
For IC50 and Ki determination a minimum of six drug concentrations in triplicate were used. […] Ki values (i.e. inhibition constants) were calculated using the Cheng-Prusoff equation Ki=IC50/[1+(L/KD)], where [L] is the radioligand concentration and KD the affinity of the labelled ligand for receptor. KD was determined from the Saturation analyses.

Chain of human recombinant GABAA α5β3γ2 receptor (P31644 32-462): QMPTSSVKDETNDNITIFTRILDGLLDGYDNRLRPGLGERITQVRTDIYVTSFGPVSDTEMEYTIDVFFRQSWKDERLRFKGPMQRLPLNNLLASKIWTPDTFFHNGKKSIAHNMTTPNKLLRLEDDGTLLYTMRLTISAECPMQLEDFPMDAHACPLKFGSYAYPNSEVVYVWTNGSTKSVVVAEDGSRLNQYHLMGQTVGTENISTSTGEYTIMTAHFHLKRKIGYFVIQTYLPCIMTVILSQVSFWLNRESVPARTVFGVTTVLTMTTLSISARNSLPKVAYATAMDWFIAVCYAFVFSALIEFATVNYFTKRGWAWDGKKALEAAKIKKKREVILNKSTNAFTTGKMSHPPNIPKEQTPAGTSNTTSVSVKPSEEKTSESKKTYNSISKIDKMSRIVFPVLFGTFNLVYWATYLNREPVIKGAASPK
Chain of human recombinant GABAA α5β3γ2 receptor (P28472 26-473 partner): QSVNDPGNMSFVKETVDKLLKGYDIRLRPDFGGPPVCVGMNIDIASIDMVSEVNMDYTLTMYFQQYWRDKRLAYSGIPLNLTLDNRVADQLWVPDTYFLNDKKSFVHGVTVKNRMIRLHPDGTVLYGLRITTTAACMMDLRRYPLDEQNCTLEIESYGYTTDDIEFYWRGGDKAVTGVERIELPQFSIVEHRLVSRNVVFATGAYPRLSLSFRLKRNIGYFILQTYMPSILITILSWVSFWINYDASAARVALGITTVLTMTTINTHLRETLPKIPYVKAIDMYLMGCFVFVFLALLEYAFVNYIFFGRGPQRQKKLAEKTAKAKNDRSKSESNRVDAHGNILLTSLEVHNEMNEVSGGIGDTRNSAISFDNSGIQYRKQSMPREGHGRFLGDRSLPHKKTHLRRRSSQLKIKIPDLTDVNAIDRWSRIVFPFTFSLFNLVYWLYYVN
Chain of human recombinant GABAA α5β3γ2 receptor (P18507 40-475): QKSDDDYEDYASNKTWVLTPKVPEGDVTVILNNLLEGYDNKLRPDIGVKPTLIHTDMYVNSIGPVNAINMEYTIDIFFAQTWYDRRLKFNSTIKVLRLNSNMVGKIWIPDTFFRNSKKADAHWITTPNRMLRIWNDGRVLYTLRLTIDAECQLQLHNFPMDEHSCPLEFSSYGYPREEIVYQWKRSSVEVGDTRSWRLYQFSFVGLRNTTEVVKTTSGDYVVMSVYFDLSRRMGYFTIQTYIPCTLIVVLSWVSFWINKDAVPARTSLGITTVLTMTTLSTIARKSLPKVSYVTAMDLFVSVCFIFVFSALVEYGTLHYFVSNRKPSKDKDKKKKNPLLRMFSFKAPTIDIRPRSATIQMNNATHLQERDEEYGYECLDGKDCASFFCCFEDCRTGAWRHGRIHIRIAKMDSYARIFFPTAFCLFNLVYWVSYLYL

First: Cc1onc(-c2ccc(F)cc2)c1COc1ccc2c(n1)CCN(C(=O)c1ccno1)C2 [Example 3, 2-{[3-(4-fluorophenyl)-5-methyl-1,2-oxazol-4-yl]methoxy}-6-(1,2-oxazole-5-carbonyl)-5,6,7,8-tetrahydro-1,6-naphthyridine]
Second: CC(=O)N1CCc2nc(OCc3c(-c4ccc(F)cc4)noc3C)ccc2C1 [Example 1, 1-[2-{[3-(4-fluorophenyl)-5-methyl-1,2-oxazol-4-yl]methoxy}-7,8-dihydro-1,6-naphthyridin-6(5H)-yl]ethanone]
The Ki of the first is 1.8-fold higher: 5 nM for the first, 2.8 nM for the second. The second binds more tightly here.

`Cc1nnn(-c2ccc(F)cc2)c1COc1ccc2c(n1)CCN(C(=O)C1CC1)C2` [Example 19, 6-cyclopropanecarbonyl-2-{[1-(4-fluorophenyl)-4-methyl-1H-1,2,3-triazol-5-yl]methoxy}-5,6,7,8-tetrahydro-1,6-naphthyridine] and `COC1CCC(C(=O)N2CCc3nc(OCc4c(C)nnn4-c4ccc(F)cc4)ccc3C2)CC1` (stereo not drawn) [Example 35, 2-{[1-(4-fluorophenyl)-4-methyl-1H-1,2,3-triazol-5-yl]methoxy}-6-(4-methoxycyclohexanecarbonyl)-5,6,7,8-tetrahydro-1,6-naphthyridine] are within 1.5-fold of each other in Ki: 49 nM for the first, 71 nM for the second.

`Cc1nnn(-c2ccc(Cl)cc2)c1COc1ccc2c(n1)CCN(C(=O)[C@H]1CCOC1)C2` [Example 38, 2-{[1-(4-chlorophenyl)-4-methyl-1H-1,2,3-triazol-5-yl]methoxy}-6-[(3S)-oxolane-3-carbonyl]-5,6,7,8-tetrahydro-1,6-naphthyridine] and `Cc1nnn(-c2ccc(Cl)cc2)c1COc1ccc2c(n1)CCN(C(=O)C1CCOCC1)C2` [Example 32, 2-{[1-(4-chlorophenyl)-4-methyl-1H-1,2,3-triazol-5-yl]methoxy}-6-(oxane-4-carbonyl)-5,6,7,8-tetrahydro-1,6-naphthyridine] are within 1.5-fold of each other in Ki: 18 nM for the first, 22 nM for the second.

First: Cc1nnn(-c2ccc(Cl)cc2)c1COc1ccc2c(n1)CCN(C(=O)c1ccncc1)C2 [Example 33, 2-{[1-(4-chlorophenyl)-4-methyl-1H-1,2,3-triazol-5-yl]methoxy}-6-(pyridine-4-carbonyl)-5,6,7,8-tetrahydro-1,6-naphthyridine]
Second: Cc1nnn(-c2ccc(F)cc2)c1COc1ccc2c(n1)CCN(C(=O)Nc1ccc(Cl)cc1)C2 [Example 81, N-(4-chlorophenyl)-2-{[1-(4-fluorophenyl)-4-methyl-1H-1,2,3-triazol-5-yl]methoxy}-5,6,7,8-tetrahydro-1,6-naphthyridine-6-carboxamide]
The Ki of the first is 2.6-fold lower: 14 nM for the first, 37 nM for the second.

Compared with `CC(=O)N1Cc2ccc(OCc3c(-c4ccc(F)cc4)noc3C)nc2C1` [Example 50, 1-(2-{[3-(4-fluorophenyl)-5-methyl-1,2-oxazol-4-yl]methoxy}-5,7-dihydro-6H-pyrrolo[3,4-b]pyridin-6-yl)ethanone], `Cc1onc(-c2ccc(F)cc2)c1COc1ccc2c(n1)CCN(C(=O)N(C)C)C2` [Example 83, 2-{[3-(4-fluorophenyl)-5-methyl-1,2-oxazol-4-yl]methoxy}-N,N-dimethyl-5,6,7,8-tetrahydro-1,6-naphthyridine-6-carboxamide] is 4.7-fold higher in Ki: 0.8 nM for the first, 3.8 nM for the second. The first binds more tightly here.

Compared with `Cc1nnn(-c2ccc(F)cc2)c1COc1ccc2c(n1)CN(C(=O)C1CCOC1)C2` (stereo not drawn) [Example 62, 1-(4-fluorophenyl)-4-methyl-5-({[6-(oxolane-3-carbonyl)-5H,6H,7H-pyrrolo[3,4-b]pyridin-2-yl]oxy}methyl)-1H-1,2,3-triazole], `Cc1nnn(-c2ccc(F)cc2)c1COc1ccc2c(n1)CN(C(=O)C1CCCOC1)C2` (stereo not drawn) [Example 63, 1-(4-fluorophenyl)-4-methyl-5-({[6-(oxane-3-carbonyl)-5H,6H,7H-pyrrolo[3,4-b]pyridin-2-yl]oxy}methyl)-1H-1,2,3-triazole] is 1.7-fold higher in Ki: 5.7 nM for the first, 9.5 nM for the second.

`CC(=O)N1Cc2ccc(OCc3c(-c4ccc(Cl)cc4)nnn3C)nc2C1` [Example 68, 1-(2-{[4-(4-chlorophenyl)-1-methyl-1H-1,2,3-triazol-5-yl]methoxy}-5,7-dihydro-6H-pyrrolo[3,4-b]pyridin-6-yl)ethanone] and `Cn1nnc(-c2ccc(F)cc2)c1COc1ccc2c(n1)CN(C(=O)CF)C2` [Example 70, 2-fluoro-1-(2-{[4-(4-fluorophenyl)-1-methyl-1H-1,2,3-triazol-5-yl]methoxy}-5,7-dihydro-6H-pyrrolo[3,4-b]pyridin-6-yl)ethanone] are within 1.5-fold of each other in Ki: 7.5 nM for the first, 9.2 nM for the second.

First: Cc1onc(-c2ccc(F)cc2)c1COc1ccc2c(n1)CCN(C(=O)N1CCCC1)C2 [Example 84, 2-{[3-(4-fluorophenyl)-5-methyl-1,2-oxazol-4-yl]methoxy}-6-(pyrrolidine-1-carbonyl)-5,6,7,8-tetrahydro-1,6-naphthyridine]
Second: Cc1onc(-c2ccc(F)cc2)c1COc1ccc2c(n1)CCN(C(=O)N1CCOCC1)C2 [Example 82, 2-{[3-(4-fluorophenyl)-5-methyl-1,2-oxazol-4-yl]methoxy}-6-(morpholine-4-carbonyl)-5,6,7,8-tetrahydro-1,6-naphthyridine]
The Ki of the first is 1.7-fold higher: 8.9 nM for the first, 5.2 nM for the second. The second binds more tightly here.

`Cc1nnn(-c2ccc(F)cc2)c1COc1ccc2c(n1)CCN(C(=O)[C@H]1CCC(=O)N1C)C2` [Example 41, (5R)-5-(2-{[1-(4-fluorophenyl)-4-methyl-1H-1,2,3-triazol-5-yl]methoxy}-5,6,7,8-tetrahydro-1,6-naphthyridine-6-carbonyl)-1-methylpyrrolidin-2-one] and `Cc1nnn(-c2ccc(F)cc2)c1COc1ccc2c(n1)CCN(C(=O)C(C)C)C2` [Example 22, 1-(2-{[1-(4-fluorophenyl)-4-methyl-1H-1,2,3-triazol-5-yl]methoxy}-5,6,7,8-tetrahydro-1,6-naphthyridin-6-yl)-2-methylpropan-1-one] are within 1.5-fold of each other in Ki: 67 nM for the first, 57 nM for the second.

First: Cc1nnn(-c2ccc(F)cc2)c1COc1ccc2c(n1)CN(C(=O)C(F)F)C2 [Example 53, 2,2-difluoro-1-(2-{[1-(4-fluorophenyl)-4-methyl-1H-1,2,3-triazol-5-yl]methoxy}-5,7-dihydro-6H-pyrrolo[3,4-b]pyridin-6-yl)ethanone]
Second: CC(=O)N1CCc2ccc(OCc3c(C)nnn3-c3ccc(F)cc3)nc2C1 [Example 34, 1-(2-{[1-(4-fluorophenyl)-4-methyl-1H-1,2,3-triazol-5-yl]methoxy}-5,6,7,8-tetrahydro-1,7-naphthyridin-7-yl)ethan-1-one]
The Ki of the first is 10-fold lower: 11 nM for the first, 112 nM for the second. The first binds more tightly here.

Going from `Cn1nnc(-c2ccc(F)cc2)c1COc1ccc2c(n1)CN(C(=O)C1CCOC1)C2` (stereo not drawn) [Example 71, 4-(4-fluorophenyl)-1-methyl-5-({[6-(oxolane-3-carbonyl)-5H,6H,7H-pyrrolo[3,4-b]pyridin-2-yl]oxy}methyl)-1H-1,2,3-triazole] to `Cc1onc(-c2ccc(F)cc2)c1COc1ccc2c(n1)CCN(C(=O)C1CCC1)C2` [Example 4, 6-cyclobutanecarbonyl-2-{[3-(4-fluorophenyl)-5-methyl-1,2-oxazol-4-yl]methoxy}-5,6,7,8-tetrahydro-1,6-naphthyridine], the Ki falls from 56 nM to 16 nM (3.5-fold).

Going from `Cc1nnn(-c2ccc(F)cc2)c1COc1ccc2c(n1)CCN(C(=O)c1ccccn1)C2` [Example 26, 2-{[1-(4-fluorophenyl)-4-methyl-1H-1,2,3-triazol-5-yl]methoxy}-6-(pyridine-2-carbonyl)-5,6,7,8-tetrahydro-1,6-naphthyridine] to `Cc1nnn(-c2ccc(F)cc2)c1COc1ccc2c(n1)CCN(C(=O)N1CCOCC1)C2` [Example 80, 2-{[1-(4-fluorophenyl)-4-methyl-1H-1,2,3-triazol-5-yl]methoxy}-6-(morpholine-4-carbonyl)-5,6,7,8-tetrahydro-1,6-naphthyridine], the Ki falls from 80 nM to 38 nM (2.1-fold). The second binds more tightly here.

Going from `COCC(=O)N1CCc2nc(OCc3c(C)nnn3-c3ccc(Cl)cc3)ccc2C1` [Example 42, 1-(2-{[1-(4-chlorophenyl)-4-methyl-1H-1,2,3-triazol-5-yl]methoxy}-5,6,7,8-tetrahydro-1,6-naphthyridin-6-yl)-2-methoxyethan-1-one] to `Cc1onc(-c2ccc(F)cc2)c1COc1ccc2c(n1)CCN(C(=O)CCS(C)(=O)=O)C2` [Example 48, 1-(2-{[3-(4-fluorophenyl)-5-methyl-1,2-oxazol-4-yl]methoxy}-5,6,7,8-tetrahydro-1,6-naphthyridin-6-yl)-3-methanesulfonylpropan-1-one], the Ki rises from 13 nM to 33 nM (2.5-fold). The first binds more tightly here.

`Cc1onc(-c2ccc(F)cc2)c1COc1ccc2c(n1)CCN(C(=O)C(F)(F)F)C2` [Example 12, 2,2,2-trifluoro-1-(2-{[3-(4-fluorophenyl)-5-methyl-1,2-oxazol-4-yl]methoxy}-5,6,7,8-tetrahydro-1,6-naphthyridin-6-yl)ethan-1-one] was tested, and the Ki was 14 nM.

Reference: US12370182B2, “Bicyclic derivatives as GABAA A5 receptor modulators” (RICHTER GEDEON NYRT., priority 2018, dated 2025)
